Experimental data reported in patent EP3741379A1, “COSMETIC COMPOSITION COMPRISING AZADIRACHTA INDICA LEAF EXTRACT” (HONEST CO.,LTD., priority 2019, dated 2020).

Experiments:
[1] = Hyaluronic acid + iron 10 ppm; sample at 0.2%
Text: When hyaluronic acid is degraded by heavy metals, the viscosity of the solution decreases, so the lower the viscosity, the greater the degradation of hyaluronic acid.

TRP-1 mRNA = TRP-1 mRNA expression through real-time PCR in α-MSH-treated B16F10; assay type: cell-based, mouse; conditions: at 100 µg/mL
Procedure: As cell lines, RAW 264.7, B16F10 and HacaT cells were aliquoted at 3 x 10^5 cells/well to a 6-well plate and cultured in a 5% CO2 incubator at 37°C for 24 hr. Then, the culture medium was replaced with serum-free DMEM, after which, in order to induce cell inflammation, whitening and wrinkle reduction, RAW 264.7 and B16F10 were treated with lipopolysaccharide (LPS) and alpha-melanocyte-stimulating hormone (α-MSH), respectively, at 1 ppm/well, and the cells were treated with each sample solution at different concentrations and then cultured in a 5% CO2 incubator at 37°C for 24 hr. As for HacaT cells, all experimental groups except the untreated group were washed once with PBS, added with PBS, and irradiated with UV-B (300 mJ/cm^2). After irradiation, the cells were treated with the sample solution at different concentrations and cultured for 24 hr to 48 hr. […] Thereafter, RNA was quantified using absorbance, and cDNA was then synthesized using a TProfessional basic thermocycler instrument. Thereafter, 40 PCR cycles of 95°C for 10 sec, 60°C for 15 sec, and 72°C for 20 sec were performed using Power SYBR Green PCR Master Mix reagents, primers and cDNA and using a Step One real-time PCR system, and quantitative analysis was conducted using an analysis program.
The inhibition rate of TRP-1 mRNA expression by AIE was determined through real-time PCR.

Row | Structure (SMILES) | Viscosity [1] | inhibition of TRP-1 mRNA expression (TRP-1 mRNA) [%]
1 | O=C([O-])CN(CCN(CC(=O)O)CC(=O)O)CC(=O)[O-].[Na+].[Na+] [EDTA-2Na] | 7,800 cp | –
2 | OC[C@H]1O[C@@H](Oc2ccc(O)cc2)[C@H](O)[C@@H](O)[C@@H]1O [arbutin] | – | 14.86
